According to patent US8906852B2 (MethylGene Inc., priority 2010, dated 2014):

Target: T1, VEGFR/KDR (Homo sapiens, UniProt P35968)
T1 construct: made in house; host or cells: Sf9 cells (Spodoptera frugiperda), baculovirus
Assay: VEGFR/KDR kinase inhibition, DELFIA assay
Format: biochemical
Details: ATP 0.6 uM (2x Km), enzyme 5 nM
Summary of the method: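 DELFIA time-resolved fluorescence readout using Europium-tagged anti-phosphotyrosine antibody after EDTA stop. Kinase reaction on plate-bound poly(Glu4,Tyr) ran 10-30 min at 30° C with 5 nM enzyme and 0.6 uM ATP (2× Km), following 4 min on-ice pre-incubation with compound; IC50 over a concentration range.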

T1 sequence (P35968 806-1356): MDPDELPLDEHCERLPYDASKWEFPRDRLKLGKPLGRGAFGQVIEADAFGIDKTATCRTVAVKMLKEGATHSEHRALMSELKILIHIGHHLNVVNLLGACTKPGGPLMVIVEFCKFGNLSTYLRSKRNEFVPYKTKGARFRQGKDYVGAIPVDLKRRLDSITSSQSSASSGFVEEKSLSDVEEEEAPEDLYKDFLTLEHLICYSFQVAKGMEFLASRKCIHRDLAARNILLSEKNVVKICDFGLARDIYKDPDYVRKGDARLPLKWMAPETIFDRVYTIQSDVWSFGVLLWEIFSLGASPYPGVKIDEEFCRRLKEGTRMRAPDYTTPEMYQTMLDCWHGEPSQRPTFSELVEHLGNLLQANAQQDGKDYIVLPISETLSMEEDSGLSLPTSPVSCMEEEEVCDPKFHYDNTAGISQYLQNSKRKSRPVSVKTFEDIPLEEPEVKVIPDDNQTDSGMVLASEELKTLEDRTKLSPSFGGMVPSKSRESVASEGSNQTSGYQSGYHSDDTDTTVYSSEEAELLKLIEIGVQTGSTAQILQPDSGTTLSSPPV

IC50, < 50 nM:
O=C(Nc1ccc(Oc2ccnc3cc(-c4ccc(C(=O)N5CCCC5)cc4)sc23)c(F)c1)Nc1ccc(F)cc1F [Compound 127, 1-(2,4-difluorophenyl)-3-(3-fluoro-4-(2-(4-(pyrrolidine-1-carbonyl)phenyl)thieno[3,2-b]pyridin-7-yloxy)phenyl)urea]
CC(C)NC(=O)Nc1ccc(Oc2ccnc3cc(-c4ccc(C(=O)N5CCCC5)cc4)sc23)c(F)c1 [Compound 128, 1-(3-fluoro-4-(2-(4-(pyrrolidine-1-carbonyl)phenyl)thieno[3,2-b]pyridin-7-yloxy)phenyl)-3-isopropylurea]
O=C(Nc1ccc(Oc2ccnc3cc(-c4ccc(C(=O)N5CCCC5)cc4)sc23)c(F)c1)NC1CC1 [Compound 129, 1-cyclopropyl-3-(3-fluoro-4-(2-(4-(pyrrolidine-1-carbonyl)phenyl)thieno[3,2-b]pyridin-7-yloxy)phenyl)urea]
CS(=O)(=O)c1cccc(NC(=O)Nc2ccc(Oc3ccnc4cc(-c5ccc(C(=O)N6CCCC6)cc5)sc34)c(F)c2)c1 [Compound 130, 1-(3-fluoro-4-(2-(4-(pyrrolidine-1-carbonyl)phenyl)thieno[3,2-b]pyridin-7-yloxy)phenyl)-3-(3-(methylsulfonyl)phenyl)urea]
O=C(Nc1ccc(Oc2ccnc3cc(-c4ccc(CN5C(=O)CCC5=O)cn4)sc23)c(F)c1)NC1CC1 [Compound 140, 1-cyclopropyl-3-(4-(2-(5-((2,5-dioxopyrrolidin-1-yl)methyl)pyridin-2-yl)thieno[3,2-b]pyridin-7-yloxy)-3-fluorophenyl)urea]
CN1CCN(Cc2ccc(-c3cc4nccc(Oc5ccc(NC(=O)NC6CC6)cc5F)c4s3)nc2)C1=O [Compound 141, 1-cyclopropyl-3-(3-fluoro-4-(2-(5-((3-methyl-2-oxoimidazolidin-1-yl)methyl)pyridin-2-yl)thieno[3,2-b]pyridin-7-yloxy)phenyl)urea]
O=C(Nc1ccc(Oc2ccnc3cc(-c4ccc(CN5CCNC5=O)cn4)sc23)c(F)c1)NC1CC1 [Compound 143, 1-cyclopropyl-3-(3-fluoro-4-(2-(5-((2-oxoimidazolidin-1-yl)methyl)pyridin-2-yl)thieno[3,2-b]pyridin-7-yloxy)phenyl)urea]
O=C(Nc1ccc(Oc2ccnc3cc(-c4cnn(CCN5CCOCC5)c4)sc23)c(F)c1)NC1CC1 [Compound 155, 1-cyclopropyl-3-(3-fluoro-4-(2-(1-(2-morpholinoethyl)-1H-pyrazol-4-yl)thieno[3,2-b]pyridin-7-yloxy)phenyl)urea]
O=C(Nc1ccc(Oc2ccnc3cc(-c4cnn(CCOC(=O)NC5CC5)c4)sc23)c(F)c1)NC1CC1 [Compound 157, 2-(4-(7-(4-(3-cyclopropylureido)-2-fluorophenoxy)thieno[3,2-b]pyridin-2-yl)-1H-pyrazol-1-yl)ethyl cyclopropylcarbamate]
COCCN(Cc1cnc(-c2cc3nccc(Oc4ccc(NC(=O)NC5CC5)cc4F)c3s2)n1C)C(=O)NC1CC1 [Compound 161, 1-((2-(7-(2-fluoro-4-cyclopropylaminocarbonylaminophenoxy)thieno[3,2-b]pyridin-2-yl)-1-methyl-1H-imidazol-5-yl)methyl)-3-cyclopropyl-1-(2-methoxyethyl)urea]
CCNC(=O)N(CCOC)Cc1cnc(-c2cc3nccc(Oc4ccc(NC(=O)NC(C)C)cc4F)c3s2)n1C [Compound 161-A, 1-((2-(7-(4-isopropylaminocarbonylamino-2-fluorophenoxy)thieno[3,2-b]pyridin-2-yl)-1-methyl-1H-imidazol-5-yl)methyl)-3-ethyl-1-(2-methoxyethyl)urea]
